According to PubChem BioAssay (NCI):
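Compound exposure: 48 hours, 5 concentrations, 96-well plates. Here, GI50 denotes the concentration required for 50% inhibition of growth. TGI marks complete inhibition of growth.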

Tests used:
Assay in all cases: inhibition of tumour cell growth, NCI panel, 48 h; in the data active means GI50 below about 0.43 µM; inactive means the rest
A549 NSCLC = system: A549 NSCLC
K-562 leukemia = system: K-562 leukemia
KM12 colon = system: KM12 colon
OVCAR-3 ovarian = system: OVCAR-3 ovarian
SF-268 CNS = system: SF-268 CNS
SK-MEL-5 melanoma = system: SK-MEL-5 melanoma
U251 CNS = system: U251 CNS
UACC-62 melanoma = system: UACC-62 melanoma
HT29 colon = system: HT29 colon
NCI-H226 lung = system: NCI-H226 lung

CC(=O)N(CCN1C(=O)c2ccccc2C1=O)CCN1C(=O)c2ccccc2C1=O
> 100 µM: TGI (A549 NSCLC) | TGI (K-562 leukemia) | TGI (KM12 colon) | TGI (OVCAR-3 ovarian) | TGI (SF-268 CNS) | TGI (SK-MEL-5 melanoma) | TGI (U251 CNS) | TGI (UACC-62 melanoma)

NC1=NC2=C(CCCC2)C(c2cccs2)S1 (configuration not stated)
> 100 µM: TGI (A549 NSCLC) | TGI (HT29 colon) | TGI (K-562 leukemia) | TGI (KM12 colon) | TGI (OVCAR-3 ovarian) | TGI (SF-268 CNS) | TGI (SK-MEL-5 melanoma) | TGI (U251 CNS) | TGI (UACC-62 melanoma)

O=C(Nc1ccc(I)cc1)c1cccc([N+](=O)[O-])c1O
inactive: GI50 (A549 NSCLC) 4.52 µM | GI50 (HT29 colon) 4.84 µM | GI50 (K-562 leukemia) 2640 nM | GI50 (KM12 colon) 4.05 µM | GI50 (NCI-H226 lung) 2810 nM | GI50 (OVCAR-3 ovarian) 2.9 µM | GI50 (SF-268 CNS) 4.15 µM | GI50 (U251 CNS) 3.39 µM | GI50 (UACC-62 melanoma) 3.77 µM
33.5 µM: TGI (NCI-H226 lung)
24 µM: TGI (UACC-62 melanoma)
> 100 µM: TGI (A549 NSCLC) | TGI (HT29 colon) | TGI (K-562 leukemia) | TGI (KM12 colon) | TGI (OVCAR-3 ovarian) | TGI (SF-268 CNS) | TGI (U251 CNS)

CN(C)c1ccc(/C=c2\sc3nnc(-c4cccnc4)n3c2=O)cc1
> 100 µM: TGI (A549 NSCLC) | TGI (K-562 leukemia) | TGI (KM12 colon) | TGI (NCI-H226 lung) | TGI (OVCAR-3 ovarian) | TGI (SF-268 CNS) | TGI (SK-MEL-5 melanoma) | TGI (U251 CNS) | TGI (UACC-62 melanoma)

CC(=O)Oc1c(Br)ccc2cc(C(Br)Br)c(C(=O)c3ccccc3)nc12
44.1 µM: TGI (K-562 leukemia)
40.2 µM: TGI (NCI-H226 lung)
38.7 µM: TGI (SK-MEL-5 melanoma)
37.1 µM: TGI (KM12 colon)
36.3 µM: TGI (U251 CNS)
53.5 µM: TGI (SF-268 CNS)
40.1 µM: TGI (HT29 colon)
39.4 µM: TGI (UACC-62 melanoma)
43.4 µM: TGI (A549 NSCLC)

O=[N+]([O-])c1ccc(/C(Cl)=C/c2ccc(/C=C(\Cl)c3ccc([N+](=O)[O-])cc3[N+](=O)[O-])cc2)c([N+](=O)[O-])c1
> 100 µM: TGI (A549 NSCLC) | TGI (HT29 colon) | TGI (NCI-H226 lung) | TGI (SF-268 CNS) | TGI (SK-MEL-5 melanoma) | TGI (U251 CNS) | TGI (UACC-62 melanoma)

O=c1[nH]c(F)nc2c1ncn2C1OC(CO)C(O)C1O (configuration not stated)
inactive: GI50 (A549 NSCLC) > 100 µM | GI50 (K-562 leukemia) > 100000 nM | GI50 (KM12 colon) > 100 µM | GI50 (NCI-H226 lung) > 100000 nM | GI50 (OVCAR-3 ovarian) > 100 µM | GI50 (SF-268 CNS) > 100 µM | GI50 (SK-MEL-5 melanoma) > 100000 nM | GI50 (U251 CNS) > 100 µM | GI50 (UACC-62 melanoma) > 100 µM
> 100 µM: TGI (A549 NSCLC) | TGI (K-562 leukemia) | TGI (KM12 colon) | TGI (NCI-H226 lung) | TGI (OVCAR-3 ovarian) | TGI (SF-268 CNS) | TGI (SK-MEL-5 melanoma) | TGI (U251 CNS) | TGI (UACC-62 melanoma)

Fc1ccc(C2SCc3nc4ccccc4n32)cc1F (configuration not stated)
34.3 µM: TGI (SK-MEL-5 melanoma)
> 100 µM: TGI (A549 NSCLC) | TGI (K-562 leukemia) | TGI (KM12 colon) | TGI (OVCAR-3 ovarian) | TGI (SF-268 CNS) | TGI (U251 CNS) | TGI (UACC-62 melanoma)

O=c1[nH]c2ccccc2n2cc3ccccc3c12
13.4 µM: TGI (U251 CNS)
14.9 µM: TGI (SK-MEL-5 melanoma)
> 100 µM: TGI (HT29 colon)
15.8 µM: TGI (UACC-62 melanoma)
87.1 µM: TGI (SF-268 CNS)
40 µM: TGI (KM12 colon)
32.2 µM: TGI (A549 NSCLC)
inactive: GI50 (A549 NSCLC) 5.9 µM | GI50 (HT29 colon) 4.37 µM | GI50 (KM12 colon) 19.2 µM | GI50 (NCI-H226 lung) 2880 nM | GI50 (OVCAR-3 ovarian) 18.6 µM | GI50 (SF-268 CNS) 21.6 µM | GI50 (SK-MEL-5 melanoma) 1890 nM | GI50 (U251 CNS) 3.25 µM | GI50 (UACC-62 melanoma) 3.22 µM
13.8 µM: TGI (NCI-H226 lung)
36.7 µM: TGI (OVCAR-3 ovarian)

CC1=NC=C(O)c2ccccc2O1
> 100 µM: TGI (A549 NSCLC) | TGI (HT29 colon) | TGI (K-562 leukemia) | TGI (KM12 colon) | TGI (OVCAR-3 ovarian) | TGI (SF-268 CNS) | TGI (U251 CNS) | TGI (UACC-62 melanoma)
